Measurements published in patent US6310043A (priority 1999, dated 2001).
Like-named read-outs stand apart in the source and are kept apart here.

How the values were obtained:
SLT-1 (VT-1) = SLT-1 (VT-1) (Bacteriophage H30, UniProt P69178); format: binding, E. coli
SLT-2 (VT-2) = SLT-2 (VT-2) (Escherichia phage 933W, UniProt P09386); format: binding, E. coli
SLT-1 (Verotoxin I) = SLT-1 (Verotoxin I) (Bacteriophage H30, UniProt P69178); assay: biochemical; format: binding, E. coli
SLT-1 = SLT-1 (Bacteriophage H30, UniProt P69178); assay: biochemical; format: binding, E. coli
[1] = test system: Vero cells exposed to SLT; format: cell-based, African Green Monkey

SLT-1 (Verotoxin I), sequence (P69178 whole entry, looked up): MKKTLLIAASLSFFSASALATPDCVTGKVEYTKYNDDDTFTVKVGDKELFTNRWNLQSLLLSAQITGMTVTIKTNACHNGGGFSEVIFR
SLT-1, sequence (P69178 21-89 limits assumed): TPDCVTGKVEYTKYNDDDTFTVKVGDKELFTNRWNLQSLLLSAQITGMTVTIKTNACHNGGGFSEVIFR
SLT-2 (VT-2), sequence (P09386 whole entry, looked up): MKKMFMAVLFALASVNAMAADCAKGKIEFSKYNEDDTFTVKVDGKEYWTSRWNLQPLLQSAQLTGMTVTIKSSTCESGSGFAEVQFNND
SLT-1 (VT-1), sequence (P69178 whole entry, looked up): as the sequence (P69178 whole entry, looked up) above

Structure (SMILES)	IC50 (SLT-1 (VT-1))	IC50 (SLT-2 (VT-2))	IC50 (SLT-1 (Verotoxin I); read-out: IC50)	IC50 (SLT-1 (Verotoxin I); IC50)	Kd (SLT-1)	IC50 (SLT-1 (Verotoxin I))	activity relative to the Pk trisaccharide alone (SLT-1 (Verotoxin I); ELISA, VT-I)	inhibition of cell lysis caused by the SLT [1]
CO[C@@H]1O[C@H](CO)[C@@H](O[C@@H]2O[C@H](CO)[C@H](O[C@H]3O[C@H](CO)[C@H](O)[C@H](O)[C@H]3O)[C@H](O)[C@H]2OCCOC(=O)NCC(CNC(=O)OCCO[C@H]2[C@H](O[C@H]3[C@H](O)[C@@H](O)[C@H](OC)O[C@@H]3CO)O[C@H](CO)[C@H](O[C@H]3O[C@H](CO)[C@H](O)[C@H](O)[C@H]3O)[C@@H]2O)OC(=O)NCCCCCCCCNc2c(NCCNC(=O)CSCCCO[C@@H]3[C@@H](OCCCSCC(=O)NCCNc4c(NCCCCCCCCNC(=O)OC(CNC(=O)OCCO[C@H]5[C@H](O[C@H]6[C@H](O)[C@@H](O)[C@H](OC)O[C@@H]6CO)O[C@H](CO)[C@H](O[C@H]6O[C@H](CO)[C@H](O)[C@H](O)[C@H]6O)[C@@H]5O)CNC(=O)OCCO[C@H]5[C@H](O[C@H]6[C@H](O)[C@@H](O)[C@H](OC)O[C@@H]6CO)O[C@H](CO)[C@H](O[C@H]6O[C@H](CO)[C@H](O)[C@H](O)[C@H]6O)[C@@H]5O)c(=O)c4=O)[C@H](OC)O[C@H](CO)[C@H]3OCCCSCC(=O)NCCNc3c(NCCCCCCCCNC(=O)OC(CNC(=O)OCCO[C@H]4[C@H](O[C@H]5[C@H](O)[C@@H](O)[C@H](OC)O[C@@H]5CO)O[C@H](CO)[C@H](O[C@H]5O[C@H](CO)[C@H](O)[C@H](O)[C@H]5O)[C@@H]4O)CNC(=O)OCCO[C@H]4[C@H](O[C@H]5[C@H](O)[C@@H](O)[C@H](OC)O[C@@H]5CO)O[C@H](CO)[C@H](O[C@H]5O[C@H](CO)[C@H](O)[C@H](O)[C@H]5O)[C@@H]4O)c(=O)c3=O)c(=O)c2=O)[C@H](O)[C@H]1O [Compound 24]	470 nM	29 nM	4.8e-05 mM	–	–	–	–	–
CO[C@@H]1O[C@H](CO)[C@@H](O[C@@H]2O[C@H](CO)[C@H](O[C@H]3O[C@H](CO)[C@H](O)[C@H](O)[C@H]3O)[C@H](O)[C@H]2O)[C@H](O)[C@H]1O [P^k -trisaccharide methyl glycoside, reference compound]	–	–	2 mM	2.1 mM	~1 mM	–	–	–
CO[C@@H]1O[C@H](CO)[C@@H](O[C@@H]2O[C@H](CO)[C@H](O[C@H]3O[C@H](CO)[C@H](O)[C@H](O)[C@H]3O)[C@H](O)[C@H]2OCCOC(=O)NCC(O)CNC(=O)OCCO[C@H]2[C@H](O[C@H]3[C@H](O)[C@@H](O)[C@H](OC)O[C@@H]3CO)O[C@H](CO)[C@H](O[C@H]3O[C@H](CO)[C@H](O)[C@H](O)[C@H]3O)[C@@H]2O)[C@H](O)[C@H]1O [Bridged P^k -trisaccharide methyl glycoside dimer]	–	–	–	–	–	0.055 mM	38 times	more effective than a Pk-BSA conjugate at inhibiting cell lysis
